How the values were obtained:
[1] = tested on: SRS-A-induced contraction of guinea pig ileum; test: Inhibition of SRS-A-induced contraction of guinea pig ileum; conditions: submaximal concentration of SRS-A (derived from guinea-pig lung), 20 min incubation, read-out: Anti-SRS-A GP ileum IC50
Protocol: (§1) Initiation of SRS-A- and LTD4 -Induced Contraction of Guinea Pig Ileum and Trachea
(§2) Method: Male Hartley guinea-pigs, weighing 500 to 700 g were killed by a blow on the head. The ileum and tracheal strips prepared according to the method of Constantine (1965) were suspended with 1.0 g tension in an organ bath containing 10 ml of Tyrode's solution equilibrated with a mixture of 95% O2 and 5% CO2 at 37° C. The tissues were equilibrated for 60 min.; during this period the Tyrode solution was replaced every 15 min. and the loading tension was adjusted to 1.0 g. The developed tension of the tissues was measured isometrically with a strain gauge transducer, and recorded on a Recticorder. Both the contractile response of the ileum to submaximal concentration of SRS-A (derived from guinea-pig lung) and the tracheal response to 10^-8 M LTD4 were measured in the absence and then the presence of various concentrations of test compounds. The incubation time of the compounds was 20 min.

[2] = tested on: LTD4-induced contraction of guinea pig trachea; test: Inhibition of LTD4-induced contraction of guinea pig trachea; conditions: 10^-8 M LTD4, 20 min incubation, read-out: Anti-LTD4 GP trachea IC50
Protocol: as §1, §2

[3] = tested on: SRS-A-mediated anaphylactic asthma; test: Inhibition of SRS-A-mediated anaphylactic asthma in conscious guinea-pigs; type: in vivo, guinea pig; conditions: for Time to onset of cough / Mortality: 30 min before antigen challenge; for Time to onset of cough: N=8
Protocol: Inhibition of SRS-A-Mediated Anaphylactic Asthma in Conscious Guinea-Pigs
Method: Male Harley guinea-pigs, weighing 370 to 410 g were passively sensitized by intravenously injecting 1 ml/kg of rabbit […] anti-bovine serum albumin serum (PHA titer: 20480). Twenty-four hours after the sensitization, indomethacine (2 mg/kg), mepyramine (2 mg/kg) and propranolol (0.3 mg/kg) were injected into the saphenous vein 20, 5 and 5 min., respectively, prior to the antigen challenge. Then, animals were placed in an 11 liter chamber connected to a glass nebulizer, and 1% solution of bovin serum albumin was sprayed into the chamber for 30 seconds. The animals were exposed to the antigen aerosol for 2 min. and observed for 15 min. after challenge. The time from the start of inhalation to the onset of cough and the mortality were recorded. Test compounds were orally administered 30 min. before antigen challenge.
^a) Animals were pretreated with mepyramine (2 mg/kg i.v.),
propranolol (0.3 mg/kg i.v.) and indomethacine (2 mg/kg i.v.) 5, 5 and 20
min., respectively, prior to antigen challenge.
^b) Test compound was orally administered 30 min. before antigen

[4] = tested on: mice; test: Toxicity, oral administration to mice; type: in vivo; conditions: orally
[5] = tested on: rats; test: Toxicity, oral administration to rats; type: in vivo; conditions: orally
[6] = tested on: SRS-A; conditions: cited from earlier work
[7] = cited from earlier work

SMILES: CCCc1c(OCCCSc2nnc(N)s2)ccc(C(C)=O)c1O [Example 2, 4-[3-[(5-amino-1,3,4-thiadizol-2-yl)thio]propoxy]-2-hydroxy-3-propylacetophenone]
- IC50 [1]: 180 nM

SMILES: CCCc1c(OCCCSc2nnc(S)s2)ccc(C(C)=O)c1O [Example 7, 2-Hydroxy-4-[[3-(5-mercapto-1,3,4-thiadiazol-2-yl)thio]propoxy]-3-propylacetophenone]
- IC50 [1]: 110 nM

SMILES: CCCc1c(OCCCSc2nnc(SCC(=O)O)s2)ccc(C(C)=O)c1O [Example 21, [[5-[[3-(4-acetyl-3-hydroxy-2-propylphenoxy)propyl]thio]-1,3,4-thiadiazol-2-yl]thio]acetic acid]
- IC50 [1]: 60 nM
- IC50 [2]: 130 nM
- Inhibition of SRS-A-mediated anaphylactic asthma (in words) ([3]; 3 mg/kg p.o.): tended to inhibit the SRS-A-mediated anaphylactic asthma in conscious guinea-pigs, but this effect was not significant
- Time to onset of cough ([3]; 3 mg/kg p.o., control 293 ± 22): 377 ± 51 s
- Mortality ([3]; 3 mg/kg p.o., control 6/8): 5/8
- Inhibition of SRS-A-mediated anaphylactic asthma (in words) ([3]; 10 mg/kg p.o. or higher): significantly inhibited the SRS-A-mediated anaphylactic asthma
- Time to onset of cough ([3]; 10 mg/kg p.o., control 281 ± 19, * significant vs control): 397 ± 42 s
- Mortality ([3]; 10 mg/kg p.o., control 7/8, * significant vs control): 2/8
- Time to onset of cough ([3]; 30 mg/kg p.o., control 281 ± 11, ** p < 0.01 vs control): 457 ± 42 s
- Mortality ([3]; 30 mg/kg p.o., control 7/8, * significant vs control): 2/8
- minimum fatal dose [4]: more than 1000 mg/kg
- minimum fatal dose [5]: more than 1000 mg/kg

SMILES: CCCc1c(OCCCCSc2nnc(SCC(=O)O)s2)ccc(C(C)=O)c1O [Example 23, [[5-[[4-(4-acetyl-3-hydroxy-2-propylphenoxy)butyl]thio]-1,3,4-thiadiazol-2-yl]thio]acetic acid]
- IC50 [1]: 150 nM

SMILES: CCCc1c(OCCCCCSc2nnc(SCC(=O)O)s2)ccc(C(C)=O)c1O [Example 24, [[5-[[5-(4-Acetyl-3-hydroxy-2-propylphenoxy)pentyl]thio]-1,3,4-thiadiazol-2-yl]thio]acetic acid]
- IC50 [1]: 190 nM

SMILES: CCCc1c(OCCCSc2nnc(SCCC(=O)O)s2)ccc(C(C)=O)c1O [Example 26]
- IC50 [1]: 120 nM

SMILES: CCCc1c(OCCCSc2snc(O)c2C(=O)O)ccc(C(C)=O)c1O [Example 27, 5-[[3-(4-acetyl-3-hydroxy-2-propylphenoxy)propyl]thio]-3-hydroxy-4-isothiazol carboxylic acid]
- IC50 [1]: 190 nM

SMILES: CCCc1c(OCCCSc2nnc(NC(=O)CC(=O)O)s2)ccc(C(C)=O)c1O [Example 33, 3-[[5-[[3-(4-acetyl-3-hydroxy-2-propylphenoxy)propyl]thio]-1,3,4-thiadiazol-2-yl]amino]-3-oxopropionic acid]
- IC50 [1]: 91 nM

SMILES: CCCc1c(OCCCSc2nnc(NC(=O)C(=O)O)s2)ccc(C(C)=O)c1O [Example 36, N-[5-[[3-(4-Acetyl-3-hydroxy-2-propylphenoxy)propyl]thio]-1,3,4-thiadizol-2-yl]oxamic acid]
- IC50 [1]: 140 nM

SMILES: CCCc1c(OCCCSc2cc(C(=O)O)nc(SC)n2)ccc(C(C)=O)c1O [Example 37, 6-[[3-(4-Acetyl-3-hydroxy-2-propylphenoxy)propyl]thio]-2-methylthio-4-pyrimidinecarboxylic acid]
- IC50 [1]: 52 nM

SMILES: CCCc1c(OCCCSc2nnc(SCCCC(=O)O)s2)ccc(C(C)=O)c1O [Example 38, 4-[[5-[[3-(4-Acetyl-3-hydroxy-2-propylphenoxy)propyl]thio]-1,3,4-thiadiazol-2-yl]thio]butyric acid]
- IC50 [1]: 38 nM
- IC50 [2]: 230 nM

SMILES: CCCc1c(OCCCSc2nnc(SCCCCC(=O)O)s2)ccc(C(C)=O)c1O [Example 41, 5-[[5-[[3-(4-Acetyl-3-hydroxy-2-propylphenoxy)propyl]thio]-1,3,4-thiadiazol-2-yl]thio]valeric acid]
- IC50 [1]: 64 nM

SMILES: CCCc1c(OCCCSc2nnc(SCCCCCC(=O)O)s2)ccc(C(C)=O)c1O [Example 42, 6-[[5-[[3-(4-Acetyl-3-hydroxy-2-propylphenoxy)propyl]thio]-1,3,4-thiadizol-2-yl]thio]hexanoic acid]
- IC50 [1]: 130 nM

SMILES: CCCc1c(OCCCSc2nnc(SC(C)CCC(=O)O)s2)ccc(C(C)=O)c1O (stereo not shown) [Example 44, 4-[[5-[[3-(4-Acetyl-3-hydroxy-2-propylphenoxy)propyl]thio]-1,3,4-thiadizol-2-yl]thio]valeric acid]
- IC50 [1]: 130 nM

SMILES: CCCc1c(OCCCSc2nnc(SCC(=O)N(C)O)s2)ccc(C(C)=O)c1O [Example 51, 2-[[5-[[3-(4-acetyl-3-hydroxy-2-propylphenoxy)propyl]thio]-1,3,4-thiadiazol-2-yl]thio]-N-hydroxy-N-methylacetamide]
- IC50 [1]: 160 nM
- IC50 [2]: 420 nM

SMILES: CCCc1c(OCC(O)COc2ccc3c(=O)cc(C(=O)O)oc3c2CCC)ccc(C(C)=O)c1O (stereo not shown) [FPL 55712]
- anti-SRS-A activity in isolated tissues [6]: potent anti-SRS-A activity in isolated tissues
- biological half life ([7]; in vivo): very short
- absorption by oral route ([7]; oral route): very poor
